Experimental data reported in article PMC12040169 (PLOS Biology, 2025).

Assay: in vitro
Details: human, hela cells, % viability

| Structure (SMILES) | viability at 28.5 h, 10 µM |
| --- | --- |
| CC(=O)N[C@H]1CO[C@H]2[C@@H]1OC[C@H]2OC(=O)Nc1ccc(Oc2ccccc2)cc1 [CBK289470] | 113% |
| CC(C)c1ccc(NC(=O)O[C@@H]2CO[C@H]3[C@@H]2OC[C@@H]3NC(=O)C2CC2)cc1 [CBK289471] | 99% |
| CCNC(=O)O[C@@H]1CO[C@H]2[C@@H]1OC[C@@H]2NC(=O)c1ccc(C)cc1 [CBK289472] | 106% |
| O=C(Nc1cccc(C(F)(F)F)c1)N[C@H]1CO[C@H]2[C@@H]1OC[C@H]2O [CBK289476] | 102% |
| Cc1ccc(S(=O)(=O)N[C@H]2CO[C@H]3[C@@H]2OC[C@H]3O)cc1 [CBK289477] | 98.4% |
| O=S(=O)(N[C@H]1CO[C@H]2[C@@H]1OC[C@H]2O)c1ccc(Cl)cc1 [CBK289478] | 87.7% |
| CC(C)c1ccc(NC(=O)O[C@@H]2CO[C@H]3[C@@H]2OC[C@@H]3NC(=O)c2cncnc2)cc1 [CBK289480] | 105% |
| CN(C)c1ccc(-c2nnnn2[C@H]2CO[C@H]3[C@@H]2OC[C@H]3O)cc1 [CBK289481] | 76.7% |
| O=C(N[C@H]1CO[C@H]2[C@@H]1OC[C@@H]2n1nnnc1-c1ccccc1)c1ccccc1 [CBK289482] | 120% |
| CC(=O)N[C@H]1CO[C@H]2[C@@H]1OC[C@@H]2n1nnnc1-c1ccccc1 [CBK289483] | 87.1% |
| CCNC(=O)N[C@H]1CO[C@H]2[C@@H]1OC[C@@H]2n1nnnc1Oc1ccccc1 [CBK289484] | 102% |
| CC(=O)N[C@H]1CO[C@H]2[C@@H]1OC[C@@H]2n1nnnc1Oc1ccc(-n2ccnc2)cc1 [CBK289487] | 104% |
| COCc1cn([C@H]2CO[C@H]3[C@@H]2OC[C@H]3OC(=O)Nc2ccc(C)cc2)nn1 [CBK289489] | 90.6% |
| COC(=O)c1cn([C@H]2CO[C@H]3[C@@H]2OC[C@H]3OC(=O)Nc2ccccc2)nn1 [CBK289492] | 91.4% |
| COCc1cn([C@H]2CO[C@H]3[C@@H]2OC[C@@H]3NC(=O)Nc2ccc(OC)cc2)nn1 [CBK289495] | 107% |
| COC(=O)c1cn([C@H]2CO[C@H]3[C@@H]2OC[C@@H]3NC(=O)C2CC2)nn1 [CBK289497] | 86% |
| COC(=O)c1cn([C@H]2CO[C@H]3[C@@H]2OC[C@@H]3NS(=O)(=O)Cc2ccccc2)nn1 [CBK289498] | 86.9% |
| COC(=O)c1cn([C@H]2CO[C@H]3[C@@H]2OC[C@@H]3NC(=O)Nc2ccc(OC)cc2)nn1 [CBK289500] | 94.2% |
| O=C(N[C@H]1CO[C@H]2[C@@H]1OC[C@@H]2n1cc(-c2ccccc2)nn1)N1CCOCC1 [CBK289503] | 87.7% |
| O=C(NC1CCCCC1)N[C@H]1CO[C@H]2[C@@H]1OC[C@@H]2n1cc(-c2ccccc2)nn1 [CBK289505] | 84.6% |
| COc1ccc(NC(=O)N[C@H]2CO[C@H]3[C@@H]2OC[C@@H]3n2cc(-c3ccccc3)nn2)cc1 [CBK289506] | 106% |
| O=C(N[C@H]1CO[C@H]2[C@@H]1OC[C@@H]2n1cc(-c2ccccn2)nn1)c1ccc(C(F)(F)F)cc1 [CBK289507] | 89.7% |
| O=C(N[C@H]1CO[C@H]2[C@@H]1OC[C@@H]2n1cc(CC2CCCCC2)nn1)C1CC1 [CBK289509] | 92.2% |
| COc1cccc(-c2nnnn2[C@H]2CO[C@H]3[C@@H]2OC[C@@H]3NC(=O)c2ccc(C)cc2)c1 [CBK289512] | 94.1% |

| Structure (SMILES) | viability at 28.5 h, 10 µM |
| --- | --- |
| O=C(N[C@H]1CO[C@H]2[C@@H]1OC[C@@H]2Nc1nccc(-c2cccs2)n1)c1ccccc1 [CBK289516] | 84.5% |
| O=C(N[C@H]1CO[C@H]2[C@@H]1OC[C@@H]2Nc1nccc(-c2cccs2)n1)C1CC1 [CBK289517] | 95% |
| O=C(N[C@H]1CO[C@H]2[C@@H]1OC[C@@H]2Nc1nccc(-c2cccs2)n1)c1cccs1 [CBK289518] | 106% |
| CC(C)(C)c1ccnc(N[C@H]2CO[C@H]3[C@@H]2OC[C@@H]3NC(=O)c2cccs2)n1 [CBK289520] | 94.8% |
| CC(C)(C)c1ccnc(N[C@H]2CO[C@H]3[C@@H]2OC[C@@H]3NS(=O)(=O)Cc2ccccc2)n1 [CBK289521] | 91.4% |
| CC(C)(C)c1ccnc(N[C@H]2CO[C@H]3[C@@H]2OC[C@@H]3NC(=O)NCc2ccccc2)n1 [CBK289522] | 87.3% |
| CS(=O)(=O)N[C@H]1CO[C@H]2[C@@H]1OC[C@@H]2Nc1nccc(-c2ccco2)n1 [CBK289525] | 96.4% |
| COc1ccc(-c2ccnc(N[C@H]3CO[C@H]4[C@@H]3OC[C@@H]4NC(=O)c3ccccc3)n2)cc1 [CBK289526] | 83.5% |
| COc1ccc(-c2ccnc(N[C@H]3CO[C@H]4[C@@H]3OC[C@@H]4NC(=O)C3CCCCC3)n2)cc1 [CBK289527] | 88.9% |
| CO[C@@H]1CO[C@H]2[C@@H]1OC[C@@H]2Nc1nccc(-c2cccc(C#N)c2)n1 [CBK289532] | 79.8% |
| CC(=O)N[C@H]1CO[C@H]2[C@@H]1OC[C@@H]2Nc1nccc(-c2cccc(F)c2)n1 [CBK289534] | 99.3% |
| O=C(N[C@H]1CO[C@H]2[C@@H]1OC[C@@H]2Nc1nccc(-c2cccc(F)c2)n1)C1CC1 [CBK289535] | 99.2% |
| CCNC(=O)N[C@H]1CO[C@H]2[C@@H]1OC[C@@H]2Nc1nccc(-c2cccc(F)c2)n1 [CBK289536] | 91.1% |
| O=C(N[C@H]1CCN2C(=O)[C@H]3CCCN3C(=O)[C@@H]2C1)c1cccs1 [CBK289538] | 106% |
| CC(C)NC(=O)N[C@H]1CCN2C(=O)N(c3cccc4nsnc34)C(=O)[C@@H]2C1 [CBK289539] | 111% |
| CC(C)c1ccc(N2C(=O)[C@@H]3C[C@@H](NC(=O)c4cccs4)CCN3C2=O)cc1 [CBK289541] | 93.1% |
| CC(C)c1ccc(N2C(=O)[C@@H]3C[C@@H](NC(=O)c4ccnc(Cl)c4)CCN3C2=O)cc1 [CBK289544] | 102% |
| CC(C)c1ccc(N2C(=O)[C@@H]3C[C@@H](NC(=O)c4cccn4C)CCN3C2=O)cc1 [CBK289547] | 92.3% |
| Cn1cccc1C(=O)N[C@H]1CCN2C(=O)N(c3ccc(OC(F)(F)F)cc3)C(=O)[C@@H]2C1 [CBK289548] | 94.7% |
| Cn1cccc1C(=O)N[C@H]1CCN2C(=O)N(c3cccc(F)c3)C(=O)[C@@H]2C1 [CBK289549] | 88.8% |
| O=C(N[C@H]1CCN2C(=O)N(c3cccc(C(F)(F)F)c3)C(=O)[C@@H]2C1)c1ccncc1 [CBK289552] | 98.7% |
| C=CCO[C@@H]1C[C@H]2C(=O)N3CC[C@H](NC(=O)[C@@H](O)c4ccccc4)C[C@H]3C(=O)N2C1 [CBK289556] | 89.6% |
| O=C(N[C@H]1CCN2C(=O)c3cc(-c4ccccc4F)ccc3NC(=O)[C@@H]2C1)c1cnccn1 [CBK289558] | 118% |
| O=C(N[C@H]1CCN2C(=O)c3cc(-c4cccs4)ccc3NC(=O)[C@@H]2C1)c1cnccn1 [CBK289559] | 106% |

| Structure (SMILES) | viability at 28.5 h, 10 µM |
| --- | --- |
| COCC(=O)N[C@H]1CCN2C(=O)c3cc(-c4ccc(F)cc4F)ccc3NC(=O)[C@@H]2C1 [CBK289561] | 78.6% |
| COc1ccc(C(=O)N[C@H]2CCN3C(=O)c4ccc(Cl)cc4NC(=O)[C@@H]3C2)cc1 [CBK289564] | 84.5% |
| CS(=O)(=O)N[C@H]1CCN2C(=O)c3cc(-c4ccc(Cl)cc4)ccc3NC(=O)[C@@H]2C1 [CBK289565] | 95.3% |
| Cc1cccc(-c2ccc3c(c2)C(=O)N2CC[C@H](NC(=O)NC(C)C)C[C@H]2C(=O)N3)c1C [CBK289567] | 97.9% |
| CC(C)NC(=O)C[C@@H]1c2nc(-c3ccccc3)sc2C[C@@H]2[C@](C)(CO)[C@H](O)CC[C@]21C [CBK289570] | 90.6% |
| Cc1nc2c(s1)C[C@@H]1[C@](C)(CO)[C@H](O)CC[C@@]1(C)[C@@H]2CC(=O)O [CBK289571] | 93.3% |
| COc1ccc(CNC(=O)C[C@@H]2[C@H](O)CCC3[C@]4(C)CO[C@@H](CN)O[C@@H]4CC[C@]32C)cc1 (stereo partly drawn) [CBK289575] | 109% |
| COc1cccc(NC(=O)O[C@@H]2CC[C@]3(C)C(CC[C@H]4OC(=O)C[C@H]43)[C@]2(C)CO)c1 (stereo partly drawn) [CBK289576] | 95.2% |
| COC(=O)[C@@H]1CN(C(=O)c2ccc(OC)cc2)CCN1C(C)=O [CBK289578] | 97.5% |
| O=C(O)CCCC(=O)N1CCN2C(=O)c3cc(Br)ccc3NC(=O)[C@@H]2C1 [CBK289581] | 100% |
| COCC(=O)N1CCN2C(=O)c3ccccc3NC(=O)[C@@H]2C1 [CBK289582] | 90.6% |
| COc1ccc(-c2ccc3c(c2)C(=O)N2CCN(C(=O)CC(C)(C)C)C[C@@H]2C(=O)N3)cc1 [CBK289584] | 94.6% |
| COCC(=O)N1CCN2C(=O)c3cc(-c4ccccc4F)ccc3NC(=O)[C@H]2C1 [CBK289587] | 82.4% |
| O=C1Nc2ccc(-c3ccccc3F)cc2C(=O)N2CCN(C(=O)C3CCNCC3)C[C@H]12 [CBK289592] | 87.3% |
| O=C1Nc2ccc(-c3ccc4c(c3)OCO4)cc2C(=O)N2CCN(C(=O)CO)C[C@H]12 [CBK289593] | 85.6% |
| O=C1Nc2ccc(-c3ccc(Cl)cc3)cc2C(=O)N2CCN(C(=O)CO)C[C@H]12 [CBK289594] | 96.1% |
| CCCNC(=O)N1CCN2C(=O)c3cc(-c4ccccc4F)ccc3NC(=O)[C@@H]2C1 [CBK289595] | 95.5% |
| CC(=O)N1CCN2C(=O)c3cc(-c4ccc5c(c4)OCO5)ccc3NC(=O)[C@H]2C1 [CBK289597] | 90.1% |
| O=C1N[C@@H](CC2CCCCC2)C(=O)N2CCN(C(=O)c3cccc(F)c3)C[C@H]12 [CBK289599] | 115% |
| O=C1N[C@@H](Cc2ccc(F)cc2)C(=O)N2CCN(C(=O)c3cccc(F)c3)C[C@H]12 [CBK289600] | 111% |
| N#Cc1ccc(C(=O)N2CCN3C(=O)[C@H](Cc4ccc(F)cc4)NC(=O)[C@H]3C2)cc1 [CBK289602] | 106% |
| COc1ccc(C[C@@H]2NC(=O)[C@H]3CN(C(=O)c4cccc(F)c4)CCN3C2=O)cc1 [CBK289604] | 88.8% |
| COC(=O)[C@@H]1CN(C(=O)C2CCCC2)CCN1C(=O)c1cccs1 [CBK289609] | 93.5% |
| COC(=O)[C@@H]1CN(C(=O)c2cccs2)CCN1C(=O)c1cccnc1 [CBK289610] | 87% |
